Test results from patent US10072304B2, “Nuclear localization of Src-family tyrosine kinases is required for growth factor-induced euchromatinization” (National University Corporation Chiba University, priority 2009, dated 2018).
Entries after “also recorded” stand apart in the source; their conditions may differ.

Experiments:
SYF cells [1] = assay: Anti-pTyr immunofluorescent staining of tyrosine phosphorylation in SYF cells; assay type: cell-based, mouse; settings: 3 mM Na3VO4 for 3 h, FIG. 46
Method: (§1) COS-1, HeLa cells (Japanese Collection of Research Bioresources, Osaka), MCF-7 (provided by H. Saya), A431 (provided by M. N. Fukuda), HEK293 (provided by M. Tagawa), HCT116 (provided by T. Tomonaga), and SYF ([37]; provided by M. Okada and S. Nada) cells were cultured in Iscove's modified DME containing 5% fetal bovine serum (FBS). Cells were transiently transfected with 0.5 μg of plasmid vector using Trans IT Transfection reagent (Mirus) or with 1 μg of plasmid vector using linear polyethylenimine (25 kDa) (Polyscience, Inc.). For growth factor stimulation, COS-1 cells were starved under low serum conditions (0.05% FBS) for 24 h and restimulated with serum (5% FBS). […]
(§2) Confocal and Nomarski differential-interference-contrast images were obtained using a Fluoview FV500 confocal laser scanning microscope with a 40×1.00 NA oil and a 100×1.35 NA oil immersion objective (Olympus, Tokyo) and an LSM 510 confocal laser scanning microscope with a 63×1.40 NA oil immersion objective (Zeiss), as described. […] Emission signals were detected between 505 and 525 nm for fluorescein, at more than 560 nm for rhodamine and more than 610 nm for PI [44]. […] Fluorescence intensity plots of anti-histone H3K4me3, anti-ATF-2 pT69/71 and anti-HP1α antibody and PI staining (see FIGS. 18B, 19B, and 20B, respectively) were generated using Fluoview version 4.3 software (Olympus, Tokyo). […]

SYF cells [2] = assay: Quantitation of chromatin condensation levels (S.D. value of PI intensity per pixel) in SYF cells; assay type: cell-based, mouse; settings: 3 mM Na3VO4 for 3 h
Method: as §1, §2

## [Na+].[Na+].[Na+].[O]=[V]([O-])([O-])[O-] [Na3VO4, sodium orthovanadate]
SYF cells [1]
  tyrosine phosphorylation: increased tyrosine phosphorylation at levels comparable to those in COS-1 cells
SYF cells [2]; SYF cells, FIG. 49
  levels of chromatin hypo- and hypercondensation: much lower than those in Na3VO4-treated COS-1 cells; also recorded: modestly induced
SYF cells [2]; SYF/c-Src-wt cells, FIGS. 48A and 49
  chromatin hypo- and hypercondensation: an increase
